≈ marks a conversion by molar mass, not a printed value. Calls of active or inactive are those of the source. The rule behind the calls is not given here. Residues, ends and D or L forms follow the SMILES beside them.
Assays:
Mus musculus [1] = species on record: Mus musculus; experiment: Inhibitory activity against Staphylococcus aureus in mice; assay type: functional
Mus musculus [2] = species on record: Mus musculus; experiment: Inhibitory activity against Streptococcus pneumoniae in mice; assay type: functional
Mus musculus [3] = species on record: Mus musculus; experiment: Inhibitory activity against Streptococcus pyogenes in mice; assay type: functional
Enterococcus faecalis [4] = experiment: Inhibitory activity against VanA strain of E. faecalis; Range is 0.03-2 ug/mL
Streptococcus pneumoniae [5] = experiment: Inhibitory activity against Streptococcus pneumoniae; assay type: functional
[6] = Inhibitory activity against VanB enterococci; Range is 0.016-1 ug/mL; assay type: functional
Enterococcus faecium [7] = experiment: Inhibitory activity against VanA strain of E. faecium; Range is 0.03-2 ug/mL; assay type: functional
Streptococcus pyogenes = experiment: Inhibitory activity against Streptococcus pyogenes; assay type: functional
Staphylococcus aureus [8] = experiment: Inhibitory activity against MRSA; assay type: functional
Helicobacter pylori = experiment: Antibacterial activity against Helicobacter pylori; Exhibits good activity; assay type: functional, organism-based
Streptococcus sp. [9] = experiment: Antibacterial activity against Streptococci; Retention of potent activity; assay type: functional, organism-based
[10] = Antibacterial activity against Legionella; More active; assay type: functional
[11] = Antibacterial activity against […] species.; More active; assay type: functional
Haemophilus influenzae = experiment: Antibacterial activity against Haemophilus influenzae; Active; assay type: functional, organism-based
Pasteurella multocida = experiment: Antibacterial activity against Pasteurella multocida; More active; assay type: functional, organism-based
Chlamydia = experiment: Antibacterial activity against Chlamydia; More active; assay type: functional, organism-based
Streptococcus sp. [12] = experiment: Antibacterial activity against Streptococci; More active; assay type: functional, organism-based
[13] = Antibacterial activity against penicillin resistant pneumococci was determined; Active; assay type: functional
Staphylococcus aureus [14] = experiment: Antibacterial activity against MRSA was determined; Active; assay type: functional, organism-based
Enterococcus faecium [15] = experiment: Inhibitory activity against strain of Enterococcus faecium; assay type: functional
Enterococcus faecalis [16] = experiment: Inhibitory activity against strain of Enterococcus faecalis; assay type: functional
Streptococcus sp. [17] = experiment: Inhibitory activity against all group A and B Streptococci; assay type: functional
Staphylococcus sp. [18] = experiment: Inhibitory activity against Staphylococci; assay type: functional
Enterococcus faecium [19] = experiment: Inhibitory activity against vancomycin-resistant Enterococcus faecium; assay type: functional
Streptococcus pneumoniae [20] = experiment: Inhibitory activity against penicillin-resistant Streptococcus pneumoniae; assay type: functional
Staphylococcus aureus [21] = experiment: Inhibitory activity against strain of Staphylococcus aureus; assay type: functional
Staphylococcus aureus [22] = experiment: Inhibitory activity against ciprofloxacin-resistant Staphylococcus aureus; assay type: functional
Pseudomonas aeruginosa = experiment: Inhibitory activity against ciprofloxacin-resistant Pseudomonas aeruginosa; assay type: functional
Bacteroides fragilis = experiment: Inhibitory activity against strain of Bacteroides fragilis; assay type: functional
Staphylococcus aureus [23] = experiment: In vitro inhibitory activity against ciprofloxacin resistant MRSA; assay type: functional
Serratia marcescens = experiment: In vitro inhibitory activity against Serratia marcescens; assay type: functional
Citrobacter freundii = experiment: In vitro inhibitory activity against Citrobacter freundii; assay type: functional
Enterococcus faecalis [24] = experiment: In vitro inhibitory activity against Enterococcus faecalis; assay type: functional
Enterobacter = experiment: In vitro inhibitory activity against Enterobacteriaceae; Range is 0.016-0.5 ug/mL; assay type: functional
Providencia sp. = experiment: In vitro inhibitory activity against Providencia species; assay type: functional
Streptococcus sp. [25] = experiment: In vitro inhibitory activity against Streptococci; Range is 0.06-0.25 ug/mL; assay type: functional
[26] = tested on: Staphylococcus epidermidis; experiment: Inhibitory activity against Staphylococcus epidermidis; assay type: functional
Staphylococcus aureus [27] = experiment: Inhibitory activity against Staphylococcus aureus; assay type: functional
[28] = Inhibitory activity against many clinical relevent pathogen; Range is 5-50 ug/mL; assay type: functional
Staphylococcus sp. [29] = experiment: Inhibitory activity against ciprofloxacin resistant staphylococci; Range is 2-8 ug/mL; assay type: functional
Enterococcus faecalis [30] = experiment: Inhibitory activity against strain of E. faecalis; Range is 0.25-2 ug/mL; assay type: functional
Streptococcus pneumoniae [31] = experiment: Inhibitory activity against S. pneumoniae; Range is 0.12-0.25 ug/mL; assay type: functional
Enterococcus = experiment: Inhibitory activity against vancomycin-resistant enterococci; assay type: functional
Enterococcus faecalis [32] = experiment: Inhibitory activity against VanA strain of E. faecalis; Range is 2-64 ug/mL; assay type: functional
Enterococcus faecium [33] = experiment: Inhibitory activity against VanA strain of E. faecium; Range is 2-64 ug/mL; assay type: functional
Bacteria = experiment: Inhibitory activity against vancomycin-sensitive Gram-positive bacteria; assay type: functional
Enterococcus faecium [34] = experiment: Inhibitory activity against strain of Enterococcus faecium resistant to both vancomycin and teicoplanin; assay type: functional
Enterococcus faecalis [35] = experiment: Inhibitory activity against strain of Enterococcus faecalis resistant to both vancomycin and teicoplanin
Enterococcus faecium [36] = experiment: Inhibitory activity against VanA strain of E. faecium; Range is 64-2108 ug/mL; assay type: functional

For CNC(=O)C[C@@H]1NC(=O)c2csc(n2)-c2ccc(-c3nc(C4=N[C@H](C(=O)N5CCC[C@H]5C(N)=O)CO4)cs3)nc2-c2csc(n2)-c2csc(n2)[C@H]([C@@H](O)c2ccccc2)NC(=O)CNC(=O)c2nc(sc2COC)[C@H](C(C)C)NC(=O)c2nc1sc2C, the ED50 (Mus musculus [1]) was 1.8 mg/kg, the ED50 (Mus musculus [2]) was 15.2 mg/kg and the ED50 (Mus musculus [3]) was 9.1 mg/kg.
With CCCCCOc1ccc(CN[C@@]2(C)C[C@@H](O[C@H]3[C@H](Oc4c5cc6cc4Oc4ccc(cc4Cl)[C@@H](C[C@H]4C[C@](C)(N)[C@@H](O)[C@H](C)O4)[C@]4(C)NC(=O)[C@H](NC(=O)[C@@H]6NC(=O)[C@H](CC(N)=O)NC(=O)[C@H](NC(=O)[C@@H](CC(C)C)NC)[C@H](O)c6ccc(c(Cl)c6)O5)c5ccc(O)c(c5)-c5c(O)cc(O)cc5[C@@H](C(=O)O)NC4=O)O[C@H](CO)[C@@H](O)[C@@H]3O)O[C@@H](C)[C@@H]2O)cc1 the MIC (Enterococcus faecalis [4]) was 0.03 µg/mL (≈ 0.0168 µM), the MIC (Streptococcus pneumoniae [5]) was less than 0.008 µg/mL and the MIC [6] was 0.016 µg/mL (≈ 0.00898 µM). For the same compound, the MIC (Enterococcus faecium [7]) was 0.03 µg/mL (≈ 0.0168 µM), the MIC (Streptococcus pyogenes) was less than 0.06 µg/mL and the MIC (Staphylococcus aureus [8]) was no more than 0.5 µg/mL.
For CC[C@H]1OC(=O)[C@H](C)[C@@H](OC2CC(C)(O)C(O)C(C)O2)[C@H](C)[C@@H](OC2OC(C)CC(N(C)C)C2O)[C@](C)(OC)C[C@@H](C)C(=O)[C@H](C)[C@@H](O)[C@]1(C)O (stereo not given in full), the Activity (Helicobacter pylori) was “Exihibits good activity”, the Activity (Streptococcus sp. [9]) was “Exihibits good activity” and the Activity [10] was “Active”. The Activity [11] was “Active”, the Activity (Haemophilus influenzae) was “Active” and the Activity (Pasteurella multocida) was “Active”. For the same compound, the Activity (Chlamydia) was “Active”.
With CC[C@H]1OC(=O)[C@H](C)[C@@H](O[C@H]2C[C@@](C)(OC)[C@@H](O)[C@H](C)O2)[C@H](C)[C@@H](O[C@@H]2O[C@H](C)C[C@H](N(C)C)[C@H]2O)[C@](C)(O)C[C@@H](C)CN(C)[C@H](C)[C@@H](O)[C@]1(C)O the Activity (Streptococcus sp. [12]) was “Active”, the Activity [10] was “Active” and the Activity [11] was “Active”. For the same compound, the Activity (Haemophilus influenzae) was “Active”, the Activity (Pasteurella multocida) was “Active” and the Activity (Chlamydia) was “Active”.
For C[C@@H](O)[C@H]1C(=O)N2C(C(=O)[O-])=C(c3ccc4c(c3)-c3ccc(C[n+]5ccn(C)c5)cc3C4=O)C[C@H]12, the Activity [13] was “Active” and the Activity (Staphylococcus aureus [14]) was “Active”.
N[C@@H]1CN(c2c(F)cc3c(=O)c(C(=O)O)cn(C4C[C@@H]4F)c3c2Cl)CC12CC2 (single isomer, unassigned) [SITAFLOXACIN ANHYDROUS] showed an MIC90 (Enterococcus faecium [15]) of 0.5 µg/mL (≈ 1.22 µM), an MIC90 (Enterococcus faecalis [16]) of 1 µg/mL (≈ 2.44 µM) and an MIC90 (Streptococcus sp. [17]) of no more than 0.125 µg/mL. For the same compound, the MIC90 (Staphylococcus aureus [8]) was 1 µg/mL (≈ 2.44 µM) and the MIC90 (Staphylococcus sp. [18]) was no more than 0.06 µg/mL.
Cc1c(N2CC[C@H](N)C2)c(F)cn2c(=O)c(C(=O)O)cc(C3CC3)c12 [ABT-719] showed an MIC90 (Enterococcus faecium [19]) of 0.5 µg/mL (≈ 1.45 µM), an MIC90 (Streptococcus pneumoniae [20]) of 0.03 µg/mL (≈ 0.0869 µM) and an MIC90 (Staphylococcus aureus [21]) of 0.015 µg/mL (≈ 0.0434 µM). The MIC90 (Staphylococcus aureus [22]) was 0.25 µg/mL (≈ 0.724 µM), the MIC90 (Pseudomonas aeruginosa) was 2 µg/mL (≈ 5.79 µM) and the MIC90 (Bacteroides fragilis) was 0.06 µg/mL (≈ 0.174 µM).
With NC1CCN(c2c(F)cc3c(=O)c(C(=O)O)cn(C4CC4)c3c2Cl)C1 (stereo not given) [CLINAFLOXACIN] the MIC90 (Staphylococcus aureus [23]) was 1 µg/mL (≈ 2.73 µM), the MIC90 (Serratia marcescens) was 0.5 µg/mL (≈ 1.37 µM) and the MIC90 (Citrobacter freundii) was 0.5 µg/mL (≈ 1.37 µM). The MIC90 (Enterococcus faecalis [24]) was 0.5 µg/mL (≈ 1.37 µM), the MIC90 (Enterobacter) was 0.016 µg/mL (≈ 0.0437 µM) and the MIC90 (Providencia sp.) was 0.5 µg/mL (≈ 1.37 µM). The MIC90 (Streptococcus sp. [25]) was 0.06 µg/mL (≈ 0.164 µM).
In the case of CCN(CC)CCS(=O)(=O)[C@@H]1CCN2C(=O)c3coc(n3)CC(=O)C[C@H](O)/C=C(C)/C=C/CNC(=O)/C=C/[C@@H](C)[C@@H](C(C)C)OC(=O)[C@@H]12 [DALFOPRISTIN], the MIC90 [26] is reported as 0.5 µg/mL (≈ 0.724 µM) and the MIC90 (Staphylococcus aureus [27]) is reported as 1 µg/mL (≈ 1.45 µM).
For CC[C@H](C)[C@H](NC(=O)CN)C(=O)NCC(=O)N[C@@H](CCCCN)C(=O)N[C@@H](Cc1ccccc1)C(=O)N[C@@H](CC(C)C)C(=O)N[C@@H](Cc1cnc[nH]1)C(=O)N[C@@H](CO)C(=O)N[C@@H](C)C(=O)NCC(=O)N[C@@H](CCCCN)C(=O)N[C@@H](Cc1ccccc1)C(=O)NCC(=O)N[C@@H](CCCCN)C(=O)N[C@@H](C)C(=O)N[C@@H](Cc1ccccc1)C(=O)N[C@H](C(=O)NCC(=O)N[C@@H](CCC(=O)O)C(=O)N[C@H](C(=O)N[C@@H](CCSC)C(=O)N[C@@H](CCCCN)C(=O)N[C@@H](CO)C(=O)O)[C@@H](C)CC)C(C)C [MAGAININ I] (H-GIGKFLHSAGKFGKAFVGEIMKS-OH), the MIC [28] was 5 µg/mL (≈ 2.07 µM).
Work on N[C@@H]1[C@H]2CN(c3nc4c(cc3F)c(=O)c(C(=O)O)cn4-c3ccc(F)cc3F)C[C@@H]12 [TROVAFLOXACIN] yielded an MIC (Staphylococcus sp. [29]) of 2 µg/mL (≈ 4.8 µM), an MIC (Enterococcus faecalis [30]) of 0.25 µg/mL (≈ 0.6 µM) and an MIC (Streptococcus pneumoniae [31]) of 0.12 µg/mL (≈ 0.288 µM).
Work on CN[C@H](CC(C)C)C(=O)N[C@H]1C(=O)N[C@@H](CC(N)=O)C(=O)N[C@H]2C(=O)N[C@H]3C(=O)N[C@](C)(C(=O)N[C@H](C(=O)O)c4cc(O)cc(O)c4-c4cc3ccc4O)[C@H](C[C@H]3C[C@](C)(N)[C@@H](O)[C@H](C)O3)c3ccc(c(Cl)c3)Oc3cc2cc(c3O[C@@H]2O[C@H](CO)[C@@H](O)[C@H](O)[C@H]2O[C@@H]2C[C@](C)(N)[C@@H](O)[C@H](C)O2)Oc2ccc(cc2Cl)[C@H]1O [VANCOMYCIN DERIVATIVE (EPIVANCOMYCIN LINKED WITH ADDITIONAL AMINO SUGAR)] yielded an MIC (Enterococcus) of 500 µg/mL (≈ 312 µM), an MIC (Enterococcus faecalis [32]) of 2 µg/mL (≈ 1.25 µM) and an MIC (Enterococcus faecium [33]) of 2 µg/mL (≈ 1.25 µM). For the same compound, the MIC (Bacteria) was 32 µg/mL (≈ 19.9 µM).
With CN[C@H](CC(C)C)C(=O)N[C@H]1C(=O)N[C@@H](CC(N)=O)C(=O)N[C@H]2C(=O)N[C@H]3C(=O)N[C@H](C(=O)N[C@H](C(=O)O)c4cc(O)cc(O)c4-c4cc3ccc4O)[C@H](O)c3ccc(c(Cl)c3)Oc3cc2cc(c3O[C@@H]2O[C@H](CO)[C@@H](O)[C@H](O)[C@H]2O[C@H]2C[C@](C)(N)[C@H](O)[C@H](C)O2)Oc2ccc(cc2Cl)[C@H]1O [VANCOMYCIN] the MIC (Enterococcus faecium [34]) was no less than 128 µg/mL, the MIC (Enterococcus faecalis [35]) was no less than 128 µg/mL and the MIC (Enterococcus faecium [36]) was 64 µg/mL (≈ 44.2 µM).

— ChEMBL document CHEMBL1129675, “New directions in antibacterial research” (1996)
